Measurements reported in patent US12390470B2, “1-methylxanthine-based bioactive composition and method of use thereof” (Ingenious Ingredients, LP, priority 2021, dated 2025).

Tests used:
Type in all cases: in vivo
[1] = test system: male Swiss Albino mice; experiment: Passive shock avoidance test, scopolamine-induced amnesia
Experimental: Behavioral studies were conducted in mice to examine the learning and memory ability by using Cook's pole and Passive shock avoidance test.
(§1) Twenty-four 8-week-old male Swiss Albino mice were housed in an animal room at a constant temperature (22±3° C.) and humidity (30%-70%) under a 12:12 h light-dark cycle with standard laboratory diet (Purina 5L79, Rat and Mouse 18% protein; PMI Nutrition International, Brentwood, MO, USA). Distilled water was provided ad libitum. All animal experiments were reviewed and approved by the Institutional Animal Ethical Committee (IAEC) of Radiant Research Services Pvt. Ltd (Bangalore, India). All research was conducted in accordance with the guidelines of the committee for the purpose of control and supervision of experiments on animals.
After one week of acclimation, the animals were randomly divided by body weight into three groups (n=8 per group in each test) for oral treatment once a day, at approximately same time each day (±1 hour), for 7 consecutive days: (1) vehicle control or (2) 1-methylxanthine or (3) 1-methylxanthine plus paraxanthine. The dose administered to the mice was calculated using US Food and Drug Administration for human equivalence doses (HED), assuming a human weight of 60 kg. […] Food intake was monitored daily while water intake was ad libitum. […]

[2] = test system: male Swiss Albino mice; experiment: Forced swim test
Experimental: as §1
After one week of acclimation, the animals were randomly divided by body weight into three groups (n=8 per group in each test) for oral treatment once a day, at approximately same time each day (±1 hour), for 28 consecutive days: (1) vehicle control or (2) 1-methylxanthine or (3) 1-methylxanthine plus paraxanthine. The dose administered to the mice was calculated using US Food and Drug Administration for human equivalence doses (HED), assuming a human weight of 60 kg. The following HED was used in this study: 100 mg 1-methylxanthine (Ingenious Ingredients, L.P Lewisville, TX, USA; mouse dose: 20.5 mg/kg bw/day), or 100 mg 1-methylxanthine (Ingenious Ingredients, L.P Lewisville, TX, USA; mouse dose: 20.5 mg/kg bw/day) plus 100 mg paraxanthine (ENFINITY™, Ingenious Ingredients, L.P Lewisville, TX, USA; mouse dose: 20.5 mg/kg bw/day). 0.5% Carboxy Methyl Cellulose sodium was used as vehicle and the test item formulations were prepared daily. Dosing was conducted via oral gavage using disposable polypropylene syringes with sterilized stainless steel gavage tubes. Food intake was monitored daily while water intake was ad libitum.
During treatment period, training was accomplished on a swimming chamber at a moderate room temperature for 15 mins. The animals were adapted to this procedure daily 1 hr after dosing for 5 days in a week during the treatment period. On 28th day of respective treatment of all the animals were subjected to force swim test. Animals were forced to swim individually for 30 min in a glass jar of height 20 cm, diameter 10 cm, and filled with fresh water to a depth of 15 cm at room temperature. The parameters measured were first occurrence of climbing (the period the animal tries to climb the wall of the chamber), duration of immobility (the total time during which the animal is immobile) and total time spent in active swimming (the total duration during which the animal swims throughout the experimental period).

[3] = Brain weight in young and aged rats
Experimental: as §1, with “young (6-8 Week) and twenty-four old (14-16 Months)” for “8-week-old male”, “Wistar rats” for “mice”
After one week of acclimation, the animals were randomly divided by body weight and age into six groups (n=8 per group in each test) for oral treatment once a day, at approximately same time each day (±1 hour), for 10 consecutive days: (1) vehicle control or (2) 1-methylxanthine or (3) 1-methylxanthine plus paraxanthine. The dose administered to the rat was calculated using US Food and Drug Administration for human equivalence doses (HED), assuming a human weight of 60 kg. […] Food intake was monitored daily while water intake was ad libitum. […] Body weight was recorded weekly. […]

## Cn1c(=O)[nH]c2nc[nH]c2c1=O [1-methylxanthine, 1-Methyl-3H-purine-2,6-dione]
[1]; mice, oral 7 days, scopolamine
  Transfer latency, passive shock avoidance test: 24.25 ± 2.60 s
[1]; mouse, in vivo
  Transfer latency faster than control: 9.3%
[2]; 30 min forced swim, day 28
  Duration of immobility: 9.74 ± 0.79 min
  duration of mobility/active swimming: 20.26 ± 0.79 min
[2]; forced swim, day 28
  number of climbing: 6.7±1.16
[2]; mouse, in vivo
  Duration of immobility lower compared to control: 5.4%
  duration of mobility/active swimming greater compared to control: 2.8%
  number of climbing improved compared to control: 6.0%
[2]; summary
  Overall outcome on energy, endurance, mood: showed improved energy and endurance, improved mood
[3]; aged animals
  Brain weight: 2 ± 0.074 g
[3]; young animals
  Brain weight: 1.73 ± 0.027 g
